The record followed here is PubChem BioAssay (NCI).

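The compound was tested at five concentrations on cells cultured in 96-well plates, with a 48-hour exposure period. At the GI50, growth is halved. At the TGI there is no net growth.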

Among the test systems are BT-549 breast; COLO 205 colon; HS 578T breast; MALME-3M melanoma; NCI-H226 lung; NCI-H460 lung; NCI/ADR-RES ovarian; OVCAR-5 ovarian; SNB-75 CNS; SR leukemia.
Common to all, as to assay: DTP human tumour cell line panel, 48 h

A word on the GI50: it is the concentration that inhibits growth by half. The term TGI denotes the concentration at which net growth stops. A lower TGI goes with greater sensitivity of the cells. Regarding `O=C(Nc1cccc(NS(=O)(=O)c2ccc(F)cc2)c1)c1ccc(-c2ccccc2)cc1`, the GI50 is 2.99 µM in the assay on BT-549 breast; 3.23 µM in the assay with COLO 205 colon; 4.68 µM in the assay on HS 578T breast; 2.81 µM with MALME-3M melanoma; 3.22 µM in the assay on NCI-H226 lung; 3.42 µM in the assay on NCI-H460 lung. The GI50 in the assay with NCI/ADR-RES ovarian was 2.75 µM; with OVCAR-5 ovarian, 7.84 µM; with SNB-75 CNS, 6.07 µM; in the assay with SR leukemia it was 2.51 µM. The TGI was 8.27 µM in the assay on BT-549 breast; 11.4 µM with COLO 205 colon; 52.5 µM in the assay on HS 578T breast; 10.2 µM in the assay on MALME-3M melanoma; 24.3 µM in the assay on NCI-H226 lung; 14.7 µM in the assay on NCI-H460 lung. For the same compound, the TGI in the assay with NCI/ADR-RES ovarian was found to be 11.3 µM; with OVCAR-5 ovarian it was 75.8 µM; in the assay with SNB-75 CNS, 44 µM; in the assay with SR leukemia, 10.1 µM.
For `O=C1c2cccnc2-c2nc(-c3ccccn3)cc3c2c1nc1ccccc13`, the GI50 with BT-549 breast was 0.249 µM; in the assay on COLO 205 colon, 0.804 µM; in the assay on HS 578T breast, 0.705 µM; in the assay with MALME-3M melanoma, 0.377 µM; with NCI-H226 lung it was 0.936 µM; in the assay on NCI-H460 lung it was 0.0616 µM. In addition, the values for the GI50 in the assay on NCI/ADR-RES ovarian, in the assay on OVCAR-5 ovarian and in the assay with SNB-75 CNS were 0.208 µM, 0.745 µM and 1.69 µM, respectively. The concentration for total growth inhibition (TGI) with BT-549 breast came to 0.672 µM; in the assay on COLO 205 colon it was 3.35 µM; with HS 578T breast it was 4.65 µM; in the assay with MALME-3M melanoma it was 1.72 µM; in the assay on NCI-H226 lung, 2.89 µM; in the assay with NCI-H460 lung, 0.268 µM. The TGI with NCI/ADR-RES ovarian is 0.658 µM; with OVCAR-5 ovarian, 3.43 µM; in the assay on SNB-75 CNS, 3.81 µM; in the assay with SR leukemia, 25.3 µM.
Take `O=C(Nc1ncc([N+](=O)[O-])s1)c1cccc([N+](=O)[O-])c1`: the GI50 in the assay on BT-549 breast is 2.78 µM; with COLO 205 colon, 4 µM; in the assay on HS 578T breast it was 1.72 µM; with MALME-3M melanoma it was 2.79 µM; with NCI-H226 lung it was 4.1 µM; in the assay with NCI-H460 lung, 2.8 µM. In addition, the GI50 was 3.32 µM in the assay on NCI/ADR-RES ovarian, 12.4 µM in the assay on OVCAR-5 ovarian, 10.7 µM in the assay on SNB-75 CNS and 2.36 µM with SR leukemia. Moreover, the TGI is 11 µM in the assay on BT-549 breast; 24.7 µM in the assay with COLO 205 colon; greater than 28.4 µM in the assay with HS 578T breast; 8.5 µM in the assay on MALME-3M melanoma; greater than 60.1 µM in the assay on NCI-H226 lung; greater than 100 µM with NCI-H460 lung. The TGI is greater than 100 µM in the assay with NCI/ADR-RES ovarian, greater than 100 µM in the assay with OVCAR-5 ovarian, 88 µM with SNB-75 CNS and 9.01 µM with SR leukemia.
Turning to `COC(=O)c1ccc(-c2nc3cc(F)c(F)cc3nc2C#N)cc1`, the GI50 in the assay with BT-549 breast is 8.24 µM; in the assay with COLO 205 colon, 13 µM; in the assay on HS 578T breast, 1.57 µM; with MALME-3M melanoma, 7.64 µM; in the assay on NCI-H226 lung, 9.39 µM; in the assay on NCI-H460 lung, 9.86 µM. For the same compound, the GI50 in the assay on NCI/ADR-RES ovarian was 4.21 µM; with OVCAR-5 ovarian it was 12.1 µM; in the assay with SR leukemia, 1.25 µM. The TGI is 16.6 µM in the assay with BT-549 breast; 33.2 µM in the assay on COLO 205 colon; 4.79 µM in the assay on HS 578T breast; 16.5 µM in the assay with MALME-3M melanoma; 21.4 µM in the assay on NCI-H226 lung; 19.2 µM in the assay with NCI-H460 lung. In addition, the figures for the TGI in the assay with NCI/ADR-RES ovarian, in the assay on OVCAR-5 ovarian and in the assay with SR leukemia were 10.4 µM, 32.6 µM and 2.77 µM, respectively.
With `C=C1C(=O)O[C@H]2[C@H]1CC/C(COC(=O)/C=C/c1cccnc1)=C\CC[C@@]1(C)O[C@@H]21`, the GI50 in the assay with BT-549 breast was 1.18 µM; in the assay on COLO 205 colon, 1.06 µM; in the assay on HS 578T breast, 4.22 µM; with MALME-3M melanoma, 1.69 µM; in the assay with NCI-H226 lung it was 2.68 µM; in the assay on NCI-H460 lung it was 5.12 µM. Moreover, the GI50 in the assay with NCI/ADR-RES ovarian was 3.3 µM; in the assay with OVCAR-5 ovarian, 2.11 µM; with SNB-75 CNS it was 11.3 µM; with SR leukemia it was 1.57 µM. The TGI in the assay on BT-549 breast was found to be 2.68 µM; in the assay on COLO 205 colon, 2.82 µM; in the assay with HS 578T breast, 36 µM; in the assay on MALME-3M melanoma, 3.63 µM; in the assay on NCI-H226 lung, 9.98 µM; in the assay with NCI-H460 lung, 20 µM. The TGI in the assay on NCI/ADR-RES ovarian was 14.1 µM; with OVCAR-5 ovarian, 5.94 µM; in the assay with SNB-75 CNS, 24.1 µM; in the assay with SR leukemia, 7.01 µM.
On to `O=C(O)CSCC(=O)c1ccccc1`, for which the TGI in the assay on BT-549 breast, with COLO 205 colon, in the assay with HS 578T breast, in the assay with MALME-3M melanoma, with NCI-H226 lung and in the assay with NCI-H460 lung was greater than 100 µM each time. Besides, the TGI with NCI/ADR-RES ovarian, in the assay with OVCAR-5 ovarian, in the assay with SNB-75 CNS and in the assay with SR leukemia was greater than 100 µM each time.
On to `CC(C)(C)[Si](C)(C)OC1[C@@H](O[Si](C)(C)C(C)(C)C)[C@@H](CNC(=O)NC(=O)NC(=O)CI)O[C@H]1n1cnc2c(NC(=O)Nc3ccccc3)ncnc21` (some centres not stated), for which the GI50 in the assay on BT-549 breast is 6.89 µM; in the assay on COLO 205 colon, 6.11 µM; in the assay on HS 578T breast it was 2.5 µM; in the assay with MALME-3M melanoma, 0.143 µM; with NCI-H226 lung it was 10.4 µM; in the assay on NCI-H460 lung, 4.79 µM. Also, the GI50 in the assay with NCI/ADR-RES ovarian is 0.909 µM; with OVCAR-5 ovarian, 2.71 µM; in the assay on SNB-75 CNS it was 0.651 µM; with SR leukemia, 0.0447 µM. In addition, the TGI in the assay with BT-549 breast came out at 13.9 µM; in the assay with COLO 205 colon, 13.2 µM; in the assay with HS 578T breast, 17.8 µM; in the assay with MALME-3M melanoma it was 0.565 µM; in the assay with NCI-H226 lung, 20.6 µM; in the assay on NCI-H460 lung, 21.7 µM. Moreover, the TGI in the assay with NCI/ADR-RES ovarian is 3.41 µM; in the assay with OVCAR-5 ovarian it was 12.2 µM; with SNB-75 CNS, 3.17 µM; in the assay with SR leukemia, 0.159 µM.
For the compound `COc1ccc(/C=C(\C#N)n2nnc3cc(Cl)ccc32)cc1`, the GI50 is 1.13 µM with BT-549 breast; 0.513 µM in the assay on COLO 205 colon; 2.55 µM in the assay with HS 578T breast; 1.22 µM in the assay with MALME-3M melanoma; 1.27 µM in the assay with NCI-H226 lung; 2.83 µM in the assay with NCI-H460 lung. Moreover, the GI50 in the assay with NCI/ADR-RES ovarian is 0.299 µM; with OVCAR-5 ovarian it was 1.4 µM; with SNB-75 CNS, 0.193 µM; with SR leukemia, 0.336 µM. The TGI with BT-549 breast was greater than 100 µM; in the assay with COLO 205 colon, 7.01 µM; in the assay on HS 578T breast it was 9.37 µM; with MALME-3M melanoma, 11.3 µM; in the assay on NCI-H226 lung, greater than 23.3 µM; in the assay with NCI-H460 lung, greater than 56.6 µM. The TGI in the assay with NCI/ADR-RES ovarian was 4.58 µM; with OVCAR-5 ovarian it was 6.44 µM; with SNB-75 CNS it was 0.983 µM; in the assay on SR leukemia, greater than 100 µM.
